Measured values reported in article PMC11111404, “Discovery of potent small-molecule inhibitors of lipoprotein(a) formation” (Nature, 2024).
“And” between values parts separate entries of the source, which are not always exact repeats. Equal values may be shown once. Read-outs that look alike come from different tables or passages of the source.

How the values were obtained:
[1] = molecular target: T1, apo(a) KIV2 (Homo sapiens, UniProt P08519); assay: ITC binding to apo(a) KIV2; settings: for binding to KIV2 / Kd: ITC; for binding to KIV2: in words; for Fold-difference (KIV2:KIV8): ratio of ITC Kd values KIV2:KIV8
T1 construct: made in house
T1 sequence (P08519 141-219 limits assumed): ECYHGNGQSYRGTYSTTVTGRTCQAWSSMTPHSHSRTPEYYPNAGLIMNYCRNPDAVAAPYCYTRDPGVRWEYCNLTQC
Procedure: The nucleotide sequence encoding the human LPA gene (NP_005568.2) was inserted into a mammalian expression vector containing a cytomegalovirus promoter. Protein expression was performed by transient transfection of human embryonic kidney 293 (HEK293) cells cultured in serum-free medium. The culture medium was collected five days after transfection and human apo(a) protein was purified using L-lysine affinity chromatography. Nucleotide sequences encoding various KIV domains of human apo(a) and human and rat plasminogen were inserted into a pET21a Escherichia coli expression vector. Bacterial BL21(DE3) was used as the expression host, and the induction of protein expression was performed in 2× TY medium with 1 mM isopropyl β-D-1-thiogalactopyranoside at 37 °C for 5 h. Cells were collected and stored at –80 °C for subsequent protein purification and refolding. The frozen cell pellets were lysed and inclusion bodies were purified. The protein refolding was performed using the rapid-dilution method, and the refolded proteins were further purified by size-exclusion chromatography. All protein concentrations were determined by A280.
Experiments were performed on a MicroCal Auto-iTC200 titration calorimeter (Malvern Panalytical), with a cell volume of 200 μl and a 40-μl microsyringe. Experiments were performed at 25 °C while stirring at 750 rpm in ITC buffer (50 mM phosphate buffer at pH 8.0). The microsyringe was loaded with a solution of the respective compounds, with the concentration measured by quantitative nuclear magnetic resonance, and was inserted into the calorimetric cell prefilled with the respective recombinant proteins of known concentration in ITC buffer. The system was equilibrated to 25 °C and an extra delay of 60 s was applied. The first titrations were performed using an initial control injection of 0.5 μl, followed by 18 identical injections of 2 μl, with a duration of 4 s per injection and 150-s intervals between injections. The second titration was performed over the first titration without cleaning the cell and was carried out with continuous injections as an automation method in a MicroCal Auto-iTC200. The second titrations were performed using 19 identical injections of 2 μl, with a duration of 4 s per injection and 150-s injection intervals. The data were corrected for ligand heats of dilution and were deconvoluted using MicroCal PEAQ-ITC Analysis Software to yield the enthalpy of binding (ΔH) and the binding constant (K). Thermodynamic parameters were calculated using the basic equation of thermodynamics (ΔG = ΔH – TΔS = –RTlnKd), where ΔG, ΔH and ΔS are the changes in free energy, enthalpy and entropy of binding, respectively; Kd is the equilibrium dissociation constant; T is the absolute temperature (kelvins); and R is the gas constant (1.987 cal mol^−1 K^−^1). A single-binding-site model was used in MicroCal PEAQ-ITC Analysis Software v.0.9.

[2] = test system: Lp(a); assay: Lp(a) levels in LPA × ApoB100 transgenic mice; assay type: in vivo, mouse; design: Lp(a) / Diff_vs_Vehicle: unit not given here; settings: for % max Lp(a) decrease (dose, mg/kg): Lp(a) transgenic mice section; for % Lp(a) max decrease / ED50: BID, 5 days dosing; for Percent_change_from_Vehicle / Diff_vs_Vehicle: Lp(a); for Diff_vs_Vehicle: group statistics; for ED50: Mus musculus, 120 h
Procedure: (§1) The LPA gene (GenBank accession code NM_005577) encoding the human apo(a) protein with a signal peptide, one KIV type 1, six KIV type 2 repeats, one each of KIV types 3–10, one KV and one protease domain was subcloned into a transgenic vector containing a mouse albumin promoter cassette and a human growth hormone polyadenylation signal. The transgenic mouse line was generated by pronucleus injection of the LPA transgenic vector. Eight individual transgenic founder mice were assessed for germline transmission of LPA by genotyping and assessment of the levels of apo(a) in the plasma. Positive founder mice were crossed with ApoB100 transgenic mice (Taconic model 1004), and the resulting mouse line nomenclature (B6.SJL-Tg(APOB)1102Sgy Tg(Alb-LPA)32Arte) was selected on the basis of the confirmation of germline transmission, the identification of LPA and huApoB100 transgenes and the levels of Lp(a) in the plasma. Mice hemizygous for both transgenes were used for pharmacology studies. The studies were conducted in female Lp(a) double transgenic mice (age around 7–17 months). Mice were housed in cages with a standard light cycle (12-h light, 12-h dark), at room temperature (22 ± 4 °C), with a relative humidity of 30–70%. Mice were identified by numbers on the cage cards. After arrival, mice were fed on a normal diet (Harlan Teklad diet 2014). Mice were randomized to treatment groups (n = 5 per group, unless otherwise noted) by body weight and baseline plasma Lp(a) concentration using a block randomized allocation tool (BRAT) for the study. In an example Lp(a) transgenic mouse study in which 66 mice were prescreened for baseline Lp(a) levels, the average Lp(a) level was 45 ± 1.8 µg ml^−1 (range 20–78 µg ml^−1). Mice were dosed with various compounds in vehicle (10 ml kg^−1, 1% hydroxyethyl cellulose (HEC), 0.25% Tween-80, Antifoam) or with vehicle alone as a control orally BID for five days. Blood samples were collected by tail bleeds at designated times, and Lp(a) levels were determined by ELISA by an investigator who was blinded to group allocation. In brief, lipoprotein particles were captured by a goat anti-Lp(a)-antibody-coated plate (Abcam ab31675, diluted 1:12,500 in HEPES-buffered saline), the plates were washed and samples were detected using an HRP-conjugated goat anti-apoB antibody (Abcam ab27622, diluted 1:3,000). Colorimetric peroxidase substrate 3,3’,5,5’-TMB was added, and the reaction was stopped using 1 N sulfuric acid. Absorbance at 450 nm was read on a Molecular Devices SpectraMax plate reader. Blood samples were collected at four hours after dosing on day 5 of dosing to confirm exposure. Full pharmacokinetic (PK) profiles were not evaluated. Concentrations of compounds were evaluated from dried blood spots through a non-Good Laboratory Practice (GLP) liquid chromatography with tandem mass spectrometry (LC–MS/MS) assay. Data were analysed in GraphPad Prism v.9.5.1

[3] = Drug concentration in mouse blood after oral dosing; assay type: in vivo; settings: female, whole blood (dried blood spots), day 5, read-out: Drug concentration, 4-h time point
Procedure: as §1

[4] = Lp(a) transgenic mice, oral BID, five days
[5] = transgenic mice, 3mpk oral BID five days, individual animal, 3 mg/kg
[6] = transgenic mice, 10mpk oral BID five days, individual animal, 10 mg/kg
[7] = transgenic mice, 30mpk oral BID five days, individual animal, 30 mg/kg
[8] = transgenic mice, 100mpk oral BID five days, individual animal, 100 mg/kg
[9] = 1mpk, individual animals, Fig 3f data
[10] = 3mpk, individual animals, Fig 3f data
[11] = 10mpk, individual animals, Fig 3f data
[12] = 30mpk, individual animals, Fig 3f data
[13] = transgenic mice, 1mpk oral BID five days, individual animal, 1 mg/kg

Row | SMILES | binding to KIV2 [1] | % Lp(a) max decrease ([2]; Lp(a) transgenic mice) [%] | ED50 for Lp(a) reduction [2, 4] [mg/kg] | Percent_change_from_Vehicle [2, 5] | Diff_vs_Vehicle ([2]; transgenic mice, 3mpk) | Percent_change_from_Vehicle [2, 6] | Diff_vs_Vehicle ([2]; transgenic mice, 10mpk) | Percent_change_from_Vehicle [2, 7] | Diff_vs_Vehicle ([2]; transgenic mice, 30mpk) | ED50 ([2]; Lp(a) transgenic mice) [mg/kg] | Lp(a) [2, 5] | Lp(a) [2, 6] | Lp(a) [2, 7] | concentration at 4 h ([3]; oral 3 mg/kg) [nM] | concentration at 4 h ([3]; oral 10 mg/kg) [nM] | concentration at 4 h ([3]; oral 30 mg/kg) [nM] | Kd [1] [nM] | Fold-difference (KIV2:KIV8) [1] | Diff_vs_Vehicle ([2]; transgenic mice, 1mpk) | concentration at 4 h ([3]; oral 1 mg/kg) [nM] | further results
1 | Cl.O=C(O)[C@@H](Cc1ccccc1)[C@H]1CCNC1 [LSN3353871] | does not bind | 78 | 14 | -29.9395% and -21.6818% and -23.4274% and -25.3773% and -20.1775% | -3.8966 | -56.5511% and -68.7767% and -51.9146% and -54.3536% | -9.353 | -73.0355% and -73.0232% and -55.5978% and -55.3749% and -63.9731% | -10.3714 | 14 | 11.318 and 12.652 and 12.37 and 12.055 and 12.895 | 7.019 and 5.044 and 7.768 and 7.374 | 4.356 and 4.358 and 7.173 and 7.209 and 5.82 | 13600 | 21600 | 28000 |  |  |  |  | % max Lp(a) decrease (dose, mg/kg) ([2]; dose 20 mg/kg): 40 (20) %; maximum decrease in Lp(a) levels [2, 4]: up to 78%; Percent_change_from_Vehicle [2, 8]: -69.9343% and -77.4368% and -71.3085% and -83.0203% and -88.6967%; Diff_vs_Vehicle ([2]; transgenic mice, 100mpk): -12.6134; Lp(a) [2, 8]: 4.857 and 3.645 and 4.635 and 2.743 and 1.826; concentration at 4 h ([3]; oral 100 mg/kg): 38000 nM
2 | O=C(O)[C@@H](Cc1cccc(CN(Cc2cccc(C[C@H](C(=O)O)[C@H]3CCNC3)c2)Cc2cccc(C[C@H](C(=O)O)[C@H]3CCNC3)c2)c1)[C@H]1CCNC1 [LY3473329] |  | 91.2 |  |  | -6.3714 |  | -8.8948 |  | -9.8776 | 3 |  |  |  | 97.3 ± 39.1 | 215 ± 34.6 | 264 ± 39.3 | 3900 | 177 | -1.9212 | 28.4 ± 11 | Lp(a) [2, 9]: 7.93 and 10.403 and 8.938 and 8.912 and 9.52; Percent_change_from_Vehicle (Lp(a)) [2, 9]: -28.3118% and -5.956% and -19.1994% and -19.4345% and -13.9381%; Lp(a) [2, 10]: 3.393 and 6.014 and 3.723 and 4.125 and 6.197; Percent_change_from_Vehicle (Lp(a)) [2, 10]: -69.3269% and -45.6327% and -66.3436% and -62.7095% and -43.9784%; Lp(a) [2, 11]: 2.124 and 2.374 and 3.019 and 1.686 and 1.632; Percent_change_from_Vehicle (Lp(a)) [2, 11]: -80.7988% and -78.5388% and -72.7079% and -84.7584% and -85.2465%; Lp(a) [2, 12]: 1.195 and 0.994 and 1.853 and 0.894 and 0.985; Percent_change_from_Vehicle (Lp(a)) [2, 12]: -89.1971% and -91.0141% and -83.2487% and -91.9181% and -91.0955%; % max Lp(a) decrease (dose, mg/kg) ([2]; dose 100 mg/kg): 91.2 (100) %
3 | Cl.Cl.O=C(Nc1cccc(C[C@H](C(=O)O)[C@H]2CCNC2)c1)Nc1cccc(C[C@H](C(=O)O)[C@H]2CCNC2)c1 [LSN3441732] | ruled out | 79 | 4 | -66.5236% and -51.6627% and -46.9156% and -38.737% and -24.3395% | -17.8805 | -76.5617% and -56.1229% and -72.4537% and -56.7885% and -51.1958% | -24.5369 | -63.8115% and -85.6659% and -79.4795% and -86.8495% and -81.3358% | -31.1209 | 4 | 13.1164 and 18.9391 and 20.799 and 24.0035 and 29.6445 | 9.183 and 17.1915 and 10.7929 and 16.9307 and 19.122 | 14.179 and 5.616 and 8.04 and 5.1525 and 7.3128 | 432 ± 203 | 465 ± 167 | 625 ± 184 | 130000 | >13000 | -9.583 | 147 ± 126 | % max Lp(a) decrease (dose, mg/kg) ([2]; dose 30 mg/kg): 79 (30) %; mean maximal inhibition of Lp(a) ([2]; Lp(a) transgenic mice, 30 mg kg^−1 oral BID, five days): 79%; Percent_change_from_Vehicle [2, 13]: -26.3802% and -29.1802% and -35.4498% and -52.0742% and 20.793%; Lp(a) [2, 13]: 28.845 and 27.7479 and 25.2914 and 18.7778 and 47.3279
